Source: patent publication US6620819B2, “Anticonvulsant derivatives useful in treating psychosis” (Ortho-McNeil Pharmaceutical, Inc., priority 1999, dated 2003)

What was measured:
[1] = tested on: behavioral agitation in dementia; settings: some patients with dementia; cited from earlier work
[2] = tested on: patients with psychosis, not otherwise specified; experiment: retrospective chart review of open label add-on topiramate, psychosis patients; format: in vivo, human; settings: both psychosis inpatients; daily mean dose 260 mg, duration 10.7 weeks; added to existing pharmacotherapy, several on risperidone
Description: (§1) A retrospective analysis of patients treated in an open label manner with topiramate for dementia and/or behavioral and psychotic disturbances in dementia was performed.
(§2) The charts of 58 consecutive patients with diagnosed psychiatric disorders refractory to conventional mood stabilizers who were treated with topiramate were selected for retrospective review. Topiramate 25 mg BID was added to existing pharmacotherapy on an open label basis. It was titrated upward in 50 mg (25 mg bid) increments every seven days until improvement occurred or a total dosage of 400 mg per day was reached. Charts were retrospectively reviewed for the following data: demographic information, psychiatric diagnosis and duration of illness, general medical history, daily dose of topiramate and regimen, duration of topiramate therapy, reason for discontinuation of topiramate therapy, previous therapy, concurrent medications, adverse events and evaluation of response to topiramate.
(§3) Results were analyzed using descriptive statistics. When possible, results are expressed as means with standard deviation (SD). […] Improvement was investigator rated and included a qualitative assessment of changes in sleep, appetite, mood and concentration during therapy. Adverse events reported by the patients were recorded during therapy and assessed for their relationship to study therapy. […]

patients with dementia = experiment: retrospective chart review of open label add-on topiramate, dementia patients; format: in vivo, human; settings: all three dementia inpatients; daily mean dose 210 mg, duration 11.7 weeks; added to existing pharmacotherapy, several on risperidone
Description: as §1, §2, §3

kindled epilepsy = settings: animal model of kindled epilepsy; cited from earlier work
[3] = tested on: simple and complex partial seizures and secondarily generalized seizures; settings: adjunctive therapy or monotherapy, clinical trials; cited from earlier work
[4] = tested on: seizures in several rodent models of epilepsy; settings: cited from earlier work

SMILES	control of behavioral agitation [1]	investigator rated response (Likert scale worse / no change / minimally improved / markedly improved) [2]	investigator rated response (Likert scale worse / no change / minimally improved / markedly improved) (patients with dementia)	block of seizures (kindled epilepsy)	efficacy in treating simple and complex partial seizures and secondarily generalized seizures [3]	block of seizures [4]
NC(=O)N1c2ccccc2C=Cc2ccccc21 [carbamazepine]	efficacious	–	–	–	–	–
CCCC(CCC)C(=O)O [divalproex sodium]	efficacious	–	–	–	–	–
CC1(C)O[C@@H]2[C@@H](CO[C@@]3(COS(N)(=O)=O)OC(C)(C)O[C@@H]23)O1 [topiramate, 2,3:4,5-bis-O-(1-methylethylidene)-β-D-fructopyranose sulfamate]	–	marked or moderate improvement	marked or moderate improvement	effectively block seizures	effective	effectively block seizures
